Each molecule was assayed on YAP-TEAD interaction (assay: SK-HEP-1 reporter assay (8xTEAD responsive elements driving NanoLuc luciferase)). Conditions: Homo sapiens, SK-HEP1, SK-HEP-1 reporter assay.
Format: cell-based
Procedure: To identify inhibitors of YAP-TEAD interaction, 8×TEAD responsive elements driving the NanoLuc® luciferase gene were stably integrated into SK-HEP-1 cells (ECACC #: 91091816).
For the assay, cells were treated in duplicates with the test compounds in a 10-point dose, with the top concentration starting at 30 μM (final concentration in assay). After a 24 hour incubation at 37° C., 95% rH, and 5% CO2, a luciferase substrate/lysis reagent mix (NanoGlo™, Promega) was added to the cells, allowing the quantification of cellular luciferase activity.
Cell Media: The cells were cultured in the following media: MEM, +10% FBS, +1× GlutaMAX, +1 mM Sodium-Pyruvate, +100 μM Non-essential amino acids, +0.1 mg/ml Hygromycin. The media used for the assay was: MEM (w/o Phenol Red), +10% FBS, +1× GlutaMAX, +1 mM Sodium-Pyruvate, +100 μM Non-essential amino acids, +0.5% Pen/Strep
Reagents: The reagents used are listed below:
Cell culture: The cells were examined using an inverted microscope to check for health and cell density. To dissociate adherent cells, the monolayer of cells was washed once with pre-warmed PBS. After removing the PBS, 3 ml pre-warmed Accutase® was added to a F75 flask, dispersed evenly and the flask was allowed to sit in incubator for ˜4-5 minutes.
When a single cell suspension was obtained, 7 ml of prewarmed growth media was added and resuspended with the cells. The cell suspension was transferred to a sterile 15 ml conical centrifuge tube, and spun for 5 min at 300×g, RT. The supernatant was discarded and the pellet was resuspended in 10 ml of pre-warmed growth media.
The total cell count was determined, and 20 μl of the desired cell number was added to each well of a 384 well plate using a Multidrop Combi. The plates were then incubated for 24 hours at 37° C., 95% rH, and 5% CO2.
Compound treatment: 24 hours after seeding, the cells were treated with compounds.
A 1:333 dilution of compounds, diluted in DMSO, was made to get a final concentration of 0.3% DMSO per well. To transfer the compounds to the assay plate, 120 nl was shot from Labcyte low dead volume plates to the cell plates containing 20 μl media/well with the ECHO 555 liquid handling system.
After treatment, the cells were fed with 20 μl fresh pre-warmed assay media using a Multidrop combi.
The assay plates were then incubated for another 24 h at 37° C., 95% rH, and 5% CO2.
Luciferase readout: 24 h after treatment, the plates were taken out of the incubator and were allowed to equilibrate to RT. 30 μl of NanoGlo® reagent was added to the plates in the dark. Plates were shaken for 20 min on a Teleshake (˜1500 rpm) in the dark. The luminescence was then measured using an EnVision microplate reader. The IC50 values were generated using Genedata Screener®.

First: Cc1cc(CC(C)NC(=O)c2ccc3c(c2)c2cn(C)nc2n3-c2ccc(C(F)(F)F)cc2)n[nH]1 (stereo not drawn) [B101^]
Second: Cc1n[nH]c(C)c1C(C)NC(=O)c1ccc2c(c1)c1cn(C)nc1n2-c1ccc(C(F)(F)F)cc1 (stereo not drawn) [Example B21, N-[1-(3,5-dimethyl-1H-pyrazol-4-yl)ethyl]-2-methyl-8-[4-(trifluoromethyl)phenyl]-2H,8H-pyrazolo[3,4-b]indole-5-carboxamide]
The IC50 of the first is higher: > 10 µM for the first, 0.01 to 0.1 µM for the second.

Cn1cc2c3cc(C(=O)NCCCc4cc[nH]n4)ccc3n(-c3ccc(C(F)(F)F)cc3)c2n1 [B142^] and Cc1nc(CCCNC(=O)c2ccc3c(c2)c2cn(C)nc2n3-c2ccc(C(F)(F)F)cc2)n[nH]1 [B121^] fall in the same range of IC50: 0.1 to 10 µM for the first, 0.1 to 10 µM for the second.

First: CC(CCc1ccccn1)NC(=O)c1ccc2c(c1)c1cn(C)nc1n2-c1ccc(C(F)(F)F)cc1 (stereo not drawn) [Example B79, 2-methyl-N-[4-(pyridin-2-yl)butan-2-yl]-8-[4-(trifluoromethyl)phenyl]-2H,8H-pyrazolo[3,4-b]indole-5-carboxamide]
Second: CC(NC(=O)c1ccc2c(c1)c1cn(C)nc1n2-c1ccc(C(F)(F)F)cc1)c1cc[nH]n1 (stereo not drawn) [Example B39, 2-methyl-N-[1-(lH-pyrazol-5-yl)ethyl]-8-[4-(trifluoromethyl)phenyl]-2H,8H-pyrazolo[3,4-b]indole-5-carboxamide]
The IC50 of the first is higher: 0.1 to 10 µM for the first, 0.01 to 0.1 µM for the second. The second is the more potent here.

Cn1cc2c3cc(C(=O)N[C@@H]4COC5(CCC5)[C@H]4O)ccc3n(-c3ccc(C(F)(F)F)cc3)c2n1 (relative stereo) [Example B23, N-[(7R,8S)-8-hydroxy-5-oxaspiro[3.4]octan-7-yl]-2-methyl-8-[4-(trifluoromethyl)phenyl]-2H,8H-pyrazolo[3,4-b]indole-5-carboxamide] and Cc1c[nH]c(C2(NC(=O)c3ccc4c(c3)c3cn(C)nc3n4-c3ccc(C(F)(F)F)cc3)CCC2)n1 [Example B60, 2-methyl-N-[1-(4-methyl-1H-imidazol-2-yl)cyclobutyl]-8-[4-(trifluoromethyl)phenyl]-2H,8H-pyrazolo[3,4-b]indole-5-carboxamide] fall in the same range of IC50: 0.1 to 10 µM for the first, 0.1 to 10 µM for the second.

Cn1cc2c3cc(C(=O)N[C@@H]4CCO[C@H]4c4cc[nH]n4)ccc3n(-c3ccc(C(F)(F)F)cc3)c2n1 [B122^] and Cn1cc2c3cc(C(=O)NC4(Cc5nc[nH]n5)CC4)ccc3n(-c3ccc(C(F)(F)F)cc3)c2n1 [Example B80, 2-methyl-N-{1-[(1H-1,2,4-triazol-3-yl)methyl]cyclopropyl}-8-[4-(trifluoromethyl)phenyl]-2H,8H-pyrazolo[3,4-b]indole-5-carboxamide] fall in the same range of IC50: 0.01 to 0.1 µM for the first, 0.01 to 0.1 µM for the second.

Cn1cc2c3cc(C(=O)NCc4cncn4CCF)ccc3n(-c3ccc(C(F)(F)F)cc3)c2n1 [Example B82, N-{[1-(2-fluoroethyl)-1H-imidazol-5-yl]methyl}-2-methyl-8-[4-(trifluoromethyl)phenyl]-2H,8H-pyrazolo[3,4-b]indole-5-carboxamide] and Cc1[nH]cnc1CNC(=O)c1ccc2c(c1)c1cn(C)nc1n2-c1ccc(C(F)(F)F)cc1 [Example B46, 2-methyl-N-[(5-methyl-1H-imidazol-4-yl)methyl]-8-[4-(trifluoromethyl)phenyl]-2H,8H-pyrazolo[3,4-b]indole-5-carboxamide] fall in the same range of IC50: 0.1 to 10 µM for the first, 0.1 to 10 µM for the second.

Compared with Cc1c[nH]c(C(NC(=O)c2ccc3c(c2)c2cn(C)nc2n3-c2ccc(C(F)(F)F)cc2)C2CC2)n1 (stereo not drawn) [B145^], Cn1cc2c3cc(C(=O)NC(c4cccnc4)C4CC4)ccc3n(-c3ccc(C(F)(F)F)cc3)c2n1 (stereo not drawn) [Example B55, N-[cyclopropyl(pyridin-3-yl)methyl]-2-methyl-8-[4-(trifluoromethyl)phenyl]-2H,8H-pyrazolo[3,4-b]indole-5-carboxamide] is lower in IC50: > 10 µM for the first, 0.01 to 0.1 µM for the second. The second is the more potent here.

First: Cn1cc2c3cc(C(=O)N[C@H]4c5ccccc5C[C@@H]4O)ccc3n(-c3ccc(C(F)(F)F)cc3)c2n1 (single isomer, unassigned) [Example B2]
Second: Cn1cc2c3cc(C(=O)NC[C@H]4C[C@H](n5cncn5)C4)ccc3n(-c3ccc(C(F)(F)F)cc3)c2n1 [B140^]
The IC50 of the first is lower: 0.1 to 10 µM for the first, > 10 µM for the second. The first is the more potent here.

Cn1cc2c3cc(C(=O)N4CCn5nccc5C4CO)ccc3n(-c3ccc(C(F)(F)F)cc3)c2n1 (stereo not drawn) [Example B40] and Cn1cc2c3cc(C(=O)N4CCCC4c4ncc[nH]4)ccc3n(-c3ccc(C(F)(F)F)cc3)c2n1 (stereo not drawn) [Example B52, 2-(1-{2-methyl-8-[4-(trifluoromethyl)phenyl]-2H,8H-pyrazolo[3,4-b]indole-5-carbonyl}pyrrolidin-2-yl)-1H-imidazole] cannot be ordered by IC50: > 10 µM for the first, > 10 µM for the second.

COCC1(C)CCCN1C(=O)c1ccc2c(c1)c1cn(C)nc1n2-c1ccc(C(F)(F)F)cc1 (stereo not drawn) [Example B89, 2-(methoxymethyl)-2-methyl-1-{2-methyl-8-[4-(trifluoromethyl)phenyl]-2H,8H-pyrazolo[3,4-b]indole-5-carbonyl}pyrrolidine] and COCC1CCN(C(=O)c2ccc3c(c2)c2cn(C)nc2n3-c2ccc(C(F)(F)F)cc2)C1 (stereo not drawn) [Example B51, 3-(methoxymethyl)-1-{2-methyl-8-[4-(trifluoromethyl)phenyl]-2H,8H-pyrazolo[3,4-b]indole-5-carbonyl}pyrrolidine] fall in the same range of IC50: 0.1 to 10 µM for the first, 0.1 to 10 µM for the second.

Cn1cc2c3cc(C(=O)N4CCCC4C4CCCO4)ccc3n(-c3ccc(C(F)(F)F)cc3)c2n1 (stereo not drawn) [Example B48, 1-{2-methyl-8-[4-(trifluoromethyl)phenyl]-2H,8H-pyrazolo[3,4-b]indole-5-carbonyl}-2-(oxolan-2-yl)pyrrolidine] and Cn1cc2c3cc(C(=O)N4CCC[C@@H]4CCCO)ccc3n(-c3ccc(C(F)(F)F)cc3)c2n1 (single isomer, unassigned) [Example B18] fall in the same range of IC50: 0.1 to 10 µM for the first, 0.1 to 10 µM for the second.

COCCC1CN(C(=O)c2ccc3c(c2)c2cn(C)nc2n3-c2ccc(C(F)(F)F)cc2)CCO1 (stereo not drawn) [B111^] and Cn1cc2c3cc(C(=O)N4CCC45CCCOCC5)ccc3n(-c3ccc(C(F)(F)F)cc3)c2n1 (stereo not drawn) [B108^] cannot be ordered by IC50: > 10 µM for the first, > 10 µM for the second.

Compared with CN(C)c1noc(CCNC(=O)c2ccc3c(c2)c2cn(C)nc2n3-c2ccc(C(F)(F)F)cc2)n1 [B120^], Cc1nc(CNC(=O)c2ccc3c(c2)c2cn(C)nc2n3-c2ccc(C(F)(F)F)cc2)n[nH]1 [B144^] is lower in IC50: 0.1 to 10 µM for the first, 0.01 to 0.1 µM for the second. The second is the more potent here.

First: Cn1cc2c(n1)c1cc(S(C)(=O)=O)ccc1n2-c1ccc(C(F)(F)F)cc1 [Example 33, 7-methanesulfonyl-2-methyl-4-[4-(trifluoromethyl)phenyl]-2H,4H-pyrazolo[4,3-b]indole]
Second: CCC(NC(=O)c1ccc2c(c1)c1cn(C)nc1n2-c1ccc(C(F)(F)F)cc1)c1ncc[nH]1 (stereo not drawn) [Example B7, N-[1-(1H-imidazol-2-yl)propyl]-2-methyl-8-[4-(trifluoromethyl)phenyl]-2H,8H-pyrazolo[3,4-b]indole-5-carboxamide]
The IC50 of the first is lower: 0.1 to 10 µM for the first, > 10 µM for the second. The first is the more potent here.

Compared with Cn1cc2c3cc(C(=O)N(CCO)Cc4ccnn4C)ccc3n(-c3ccc(C(F)(F)F)cc3)c2n1 [Example B27, N-(2-hydroxyethyl)-2-methyl-N-[(1-methyl-1H-pyrazol-5-yl)methyl]-8-[4-(trifluoromethyl)phenyl]-2H,8H-pyrazolo[3,4-b]indole-5-carboxamide], Cn1cc2c3cc(C(=O)N(CCO)CC4CC=CCC4)ccc3n(-c3ccc(C(F)(F)F)cc3)c2n1 (stereo not drawn) [Example B12, N-[(cyclohex-3-en-1-yl)methyl]-N-(2-hydroxyethyl)-2-methyl-8-[4-(trifluoromethyl)phenyl]-2H,8H-pyrazolo[3,4-b]indole-5-carboxamide] is higher in IC50: 0.01 to 0.1 µM for the first, 0.1 to 10 µM for the second.

Cn1cc2c3cc(C(=O)N4CC(O)(Cc5ccn[nH]5)C4)ccc3n(-c3ccc(C(F)(F)F)cc3)c2n1 [Example B47, 1-{2-methyl-8-[4-(trifluoromethyl)-phenyl]-2H,8H-pyrazolo[3,4-b]indole-5-carbonyl}-3-[(1H-pyrazol-5-yl)methyl]azetidin-3-ol] and Cn1cc2c3cc(C(=O)N4CCC(O)(c5c[nH]nn5)C4)ccc3n(-c3ccc(C(F)(F)F)cc3)c2n1 (stereo not drawn) [Example B74, 1-(2-methyl-8-[4-(trifluoromethyl)phenyl]-2H,8H-pyrazolo[3,4-b]indole-5-carbonyl}-3-(1H-1,2,3-triazol-4-yl)pyrrolidin-3-ol] fall in the same range of IC50: 0.1 to 10 µM for the first, 0.1 to 10 µM for the second.

With CC(NC(=O)c1ccc2c(c1)c1cn(C)nc1n2-c1ccc(C(F)(F)F)cc1)c1cnn(C2CC2)c1 (stereo not drawn) [B109^] the IC50 was > 10 µM.
